Reference: publication PMC4148842 (The Journal of Biological Chemistry, 2014)
Entries after “also recorded” stand apart in the source; their conditions may differ. Values belong to the substance of their own block, whether it stands above or below them.

Tests used:
MMP-13 GST-Hpx domain = assay: MMP-13 Toolkit SPBA, isolated GST-Hpx domain; assay type: binding; details: Hpx 83 nM, anti-GST detection, 1 h, 24 °C
Source text: (§1) Recombinant proMMP-13 was expressed and purified as previously described ([18]). […] ProMMP-13(E204A) was expressed in Escherichia coli BL21(DE3), refolded, purified, and activated essentially as described for proMMP-1(E200A) ([19], [20]).
(§2) Unless stated otherwise, all peptides were triple-helical, a structure maintained by the flanking sequences, GPC(GPP)5- and -(GPP)5-GPC-amide, at their N and C terminus, respectively. For simplicity, peptides are referred to by their specific guest sequence. A negative control peptide, (GPC-(GPP)10-GPC-amide) is referred to as GPP10.
(§3) Immulon 2 HB 96-well plates (Nunc, Langenselbold, Germany) were coated with Collagen Toolkit or other peptides, fibrillar or monomeric collagen at a saturating concentration (10 μg/ml in 0.01 M acetic acid) overnight at 4 °C. Fibrous bovine type I collagen was a gift from Ethicon Corporation (Somerville, NJ). Monomeric collagen was obtained from Devro (Bathurst, Australia). All further incubations were performed at 24 °C for 1 h unless otherwise stated. The wells were washed three times with adhesion buffer (1 mg/ml BSA in Tris-buffered saline (TBS) containing 0.1% (v/v) Tween-20) between each incubation step. […] Binding curves were fitted using Prism 5.0 software (GraphPad, San Diego), allowing total binding (Bmax) and equilibrium dissociation constant (KD) to be determined. […]

MMP-13 [1] = target: T1, MMP-13 (Homo sapiens, UniProt P45452); assay: MMP-13 Toolkit SPBA, pro and active forms, wild type and E204A taken together; assay type: binding; details: for binding of MMP-13 preparations: all or several MMP-13 preparations, SPBA
Source text: as §1, §2
Immulon 2 HB 96-well plates (Nunc, Langenselbold, Germany) were coated with Collagen Toolkit or other peptides, fibrillar or monomeric collagen at a saturating concentration (10 μg/ml in 0.01 M acetic acid) overnight at 4 °C. Fibrous bovine type I collagen was a gift from Ethicon Corporation (Somerville, NJ). Monomeric collagen was obtained from Devro (Bathurst, Australia). All further incubations were performed at 24 °C for 1 h unless otherwise stated. The wells were washed three times with adhesion buffer (1 mg/ml BSA in Tris-buffered saline (TBS) containing 0.1% (v/v) Tween-20) between each incubation step. The wells were blocked with 50 mg/ml BSA in TBS prior to the addition of MMP at a concentration of 83 nM (unless otherwise stated) in adhesion buffer. […] Rabbit HRP-linked anti-GST (GE Healthcare; dilution 1:10,000) was used to detect GST-Hpx. […] Binding curves were fitted using Prism 5.0 software (GraphPad, San Diego), allowing total binding (Bmax) and equilibrium dissociation constant (KD) to be determined.

MMP-13(E204A) = target: T2, MMP-13(E204A) (Homo sapiens, UniProt P45452, E223A); assay: MMP-13 Toolkit SPBA, active-site mutant MMP-13(E204A); assay type: binding; details: 83 nM, coating 10 μg/ml, 1 h, 24 °C
T2 construct: made in house; host or cells: Escherichia coli BL21(DE3)
Source text: as §1, §2, §3

[2] = tested on: Cat domain of MMP-13 (Δ249–451); assay: MMP-13 Toolkit SPBA, isolated Cat domain; assay type: binding; details: data not shown for Toolkit II
Experimental: as §1
Immulon 2 HB 96-well plates (Nunc, Langenselbold, Germany) were coated with Collagen Toolkit or other peptides, fibrillar or monomeric collagen at a saturating concentration (10 μg/ml in 0.01 M acetic acid) overnight at 4 °C. Fibrous bovine type I collagen was a gift from Ethicon Corporation (Somerville, NJ). Monomeric collagen was obtained from Devro (Bathurst, Australia). All further incubations were performed at 24 °C for 1 h unless otherwise stated. The wells were washed three times with adhesion buffer (1 mg/ml BSA in Tris-buffered saline (TBS) containing 0.1% (v/v) Tween-20) between each incubation step. […] Binding curves were fitted using Prism 5.0 software (GraphPad, San Diego), allowing total binding (Bmax) and equilibrium dissociation constant (KD) to be determined.
Proteins were C-terminally biotinylated using an EZ-Link® Micro Sulfo-NHS-Biotinylation Kit (Pierce) according to the manufacturer's instructions. Successful biotinylation was detected via Western blotting using an ultrasensitive Streptavidin-Peroxidase Polymer (Sigma).

MMP-13 [3] = target: T1, MMP-13; assay: MMP-13 Toolkit solid-phase binding assay (SPBA), wild type active MMP-13; parameters: made in house; host or cells: mouse myeloma cells; details: 1 h, 24 °C; for binding: wild type active MMP-13, 83 nM, coating 10 μg/ml
Source text: as §1, §2
Immulon 2 HB 96-well plates (Nunc, Langenselbold, Germany) were coated with Collagen Toolkit or other peptides, fibrillar or monomeric collagen at a saturating concentration (10 μg/ml in 0.01 M acetic acid) overnight at 4 °C. Fibrous bovine type I collagen was a gift from Ethicon Corporation (Somerville, NJ). […] All further incubations were performed at 24 °C for 1 h unless otherwise stated. The wells were washed three times with adhesion buffer (1 mg/ml BSA in Tris-buffered saline (TBS) containing 0.1% (v/v) Tween-20) between each incubation step. […] Rabbit HRP-linked anti-GST (GE Healthcare; dilution 1:10,000) was used to detect GST-Hpx. […] Binding curves were fitted using Prism 5.0 software (GraphPad, San Diego), allowing total binding (Bmax) and equilibrium dissociation constant (KD) to be determined.
FIGURE 1. […] For reference, collagen D-periods corresponding to these peptides are shown as gray bars below, and the collagenase cleavage site indicated by an arrow.

MMP-13 [4] = details: cited from earlier work
Source text: Collagenolytic MMPs are members of the zinc-dependent peptidase family whose tightly regulated proteolytic activities play a pivotal role in extracellular matrix homeostasis, cell migration and wound healing. […] The Cat and Hpx are thought to cooperate to recognize and bind to the cleavage site, in collagen D-period 4 (D4), three-quarters of the way along the tropocollagen molecule ([6], [7]). Binding of the Hpx is considered to facilitate local relaxation of the helix, allowing the Cat d ... || Comparison of the collagenase cleavage sites of the various fibrillar collagens with the sequences of the MMP-13-binding peptides provides a basis for their relative recognition and subsequent cleavage.

proMMP-9 = details: ref [32]; cited from earlier work
Source text: (§4) How can MMP-13 avoid this constraint? […] The effect is to move the collagen-binding S10′ pocket of M ...

proMMP-1 = details: ref [7], [31]; cited from earlier work
Source text: as §4

proMMP-3 = details: ref [32]; cited from earlier work
Source text: as §4

A450 (adhesion) (MMP-13(E204A); mean of four experiments): ~0.8
Substance: GPQG∼LAGQRGIVGLOGQRGER [44J, 21-residue peptide, P4 to P17′, parent of the Ala-scan]
A450 (adhesion) (MMP-13 GST-Hpx domain; coating 10 μg/ml, mean of four experiments): ~0.4
binding of MMP-13 preparations (MMP-13 [1]): MMP-13(E204A) binding most strongly (A450 ∼0.8), then proMMP-13, then proMMP-13(E204A), then active MMP-13, and lastly the Hpx domain alone

binding (MMP-13 GST-Hpx domain): bound fibrillar collagen I
Kd (MMP-13 [1]; fibrillar collagen, MMP-13 preparations overall): ~0.04 µM
A450 (adhesion) (MMP-13 [3]; wild type MMP-13 (active or pro form not stated for the numbers), 83 nM, plates coated 10 μg/ml, mean of four experiments): ≥ 1.0
Substance: fibrillar type I collagen: Fibrous bovine type I collagen, a gift from Ethicon Corporation
binding [2]: bound fibrillar collagen I, albeit weakly

binding of MMP-13 preparations (MMP-13 [1]): supported no binding
Substance: GFOGLOGPS [44B, peptide containing only the missing triplets, GFOGLOGPS]

Substance: collagen II: preferred substrate for MMP-13
relative cleavage rate by MMP-13 (MMP-13 [4]; collagen II compared with collagens I and III, ref [3]): five times faster than collagen I; also recorded: six times faster than collagen III
cleavage site of MMP-13 (MMP-13 [4]; position within collagen II helical domain, ref [11], [12]): Gly^775–Leu^776; also recorded: Gly^778–Gln^779

Substance: collagen
binding [2]: able to recognize collagen; also recorded: bound weakly
binding of MMP-13 preparations (MMP-13 [1]): support firm adhesion of MMP-13 in both its active and pro- forms
binding of proMMP-9 (proMMP-9): can bind collagen
binding of proMMP-1 (proMMP-1): did not bind
binding of proMMP-3 (proMMP-3): can bind collagen

binding (MMP-13 [3]): much lower binding
binding (MMP-13(E204A)): much lower binding
Substance: monomeric type I collagen: Monomeric collagen obtained from Devro (Bathurst, Australia)

binding of MMP-13 preparations (MMP-13 [1]): negligible binding
binding (MMP-13 [3]): unable to bind
Substance: GCPP(GPPP)2GGPPPG-II-44 guest sequence -P(GPPP)2GGPPPGCPG-amide [linear peptide equivalent to II-44]
